US11980633B2, “Method for treating cancer using a combination of DNA-damaging agents and DNA-PK inhibitors” (Vertex Pharmaceuticals Incorporated, priority 2016, dated 2024)

Tests used:
[1] = system: pKAP1 and pH2AX levels in A549 cells; assay: pH2AX and pKAP1 immunoblot, Compound B-1 and etoposide in A549 lung cells; type: cell-based, human; details: 3 μM Compound B-1 + 10 μM etoposide; at 8 h
Procedure: The human cancer cell lines A549 (CCL-185), DU4475 (HTB-123), MDA-MB-436 (HTB-130), and MDA-MB-468 (HTB-132) were obtained from American Type Culture Collection (ATCC; Manassas, VA).
The A549 human lung cancer cell line was purchased from ATCC and was cultured in DMEM supplemented with 10% fetal bovine serum, 1× non-essential amino acids and 1× Penicillin/Streptomycin (complete medium). Cells were maintained at a subconfluent state by passaging every 2-3 days. Human breast cancer cells lines DU4475, MDA-MB-436, and MDA-MB-468 were purchased from ATCC and cultured in DMEM supplemented with 10% fetal bovine serum, 1× Glutamax and Penicillin/Streptomycin. Cells were maintained at a subconfluent state by passaging every 2-3 days.
Cells were then incubated for the indicated amount of time and harvested for analysis.
A 15-μL aliquot of each SDS-PAGE sample was loaded onto 12-lane 4 20% Tris-Glycine gels and the gels were run at 125v constant voltage until the dye front reached the bottom (approximately 2 h). Following electrophoresis, separated proteins in the gels were transferred to a nitrocellulose membrane. Transfer was carried out for 2 h at 1.5 A constant current in a cold room using a Hoefer transfer apparatus (Model TE42 or TE62, Hoefer Inc, Holliston, MA) according to manufacturer's instructions. […]

A549 lung cancer cells = assay: Timing and duration of Compound B-2 exposure on sensitization of A549 cells to doxorubicin hydrochloride (24 h); CellTiterGlo viability at 6 days, Bliss analysis; type: cell-based, human; set-up: scale not given here
Procedure: Cell lines, reagents, equipment, software: The human cancer cell line A549 (CCL-185) was obtained from American Type Culture Collection (ATCC; Manassas, VA). Compound B-2 used in these experiments was not prepared as a co-crystal. A 10 mM stock solution of Compound B-2 was prepared in DMSO (ATCC catalog #4-X) and stored at −20° C. Doxorubicin hydrochloride (dox) was obtained from Sigma (St. Louis, MO) (catalog #D1515), dissolved in DMSO to a 10 mM concentration and stored at −20° C.
Cell culture: The A549 human lung cancer cell line was cultured in DMEM (Life Technologies, catalog #11995) supplemented with 10% fetal bovine serum (Hyclone, catalog #SH30071.03), 1× GlutaMAX (Life Technologies, catalog #35050-061), pyruvate (Life Technologies, catalog #11360-070) and 1× Penicillin/Streptomycin (Life Technologies, catalog #15070) (complete medium). Cells were maintained at a sub-confluent state by passaging every 3-4 days. Cells were plated at 1000 cells per well in a 96-well, clear-bottomed microplate (Corning, catalog #3904), and incubated in a 37° C., 5% CO2 incubator attach overnight prior to compound addition.
Treatment with Compound B-2 and Doxorubicin hydrochloride: Ten mM stocks of Compound B-2 and doxorubicin hydrochloride were made in DMSO and added in combination to the plated cells using an HP digital dispenser D300 (Tecan, Switzerland). For these experiments, combinations with Compound B-2 at all concentrations were run in singlicate using a combination matrix in which Compound B-2 was added as a titration from 20 μM to 0.1 μM on the X-axis of the plate and doxorubicin hydrochloride added in a 2-fold dilution from 80 nM to 0.125 nM for the 6 day and 24 hour co-incubation experiments and 8 nM to 0.0125 nM for the rest of the experiments on the Y-axis. One row contained only the Compound B-2 titration and one column only the doxorubicin hydrochloride titration. Two columns of cells were used as a no-treatment control from which the fractional survival of the treated cells was determined. Cells were cultured at 37° C., 5% CO2, 95% air and 100% relative humidity. The timing of compound addition, the washout of the compounds from the wells of the plates and re-addition of doxorubicin hydrochloride was as detailed in FIG. 1. Briefly, the media from all of the wells in the plate were removed by hand using a multi-pipette, fresh (no compound) media was added, then removed again and then fresh media was added one last time. The re-addition of doxorubicin hydrochloride, where indicated, was performed using the HP D300 as outlined in FIG. 1. After 24 h, all plates were washed as detailed above and fresh medium (no compound) added. The plates were incubated for an additional 5 days (6 days in total).
Cell Viability Analysis: Six days after initial compound addition, 50 μL of CellTiterGlo (prepared according to manufacturer's protocol) was added to each well of the compound titration plates. Luminescence was read on a Pherastar FS luminescence reader (BMG Labtech, Offenberg, Germany) and these values were used for all further analyses.
Computational Methods: Cell viabilities were evaluated for a matrix of doxorubicin hydrochloride and Compound B-2 concentrations in a series of experiments testing different times of Compound B-2 addition and durations of Compound B-2 exposure. The data from each of these experiments were analyzed separately. The steps in the analysis of each experiment are described below. • 1. For each Compound B-2 concentration, the EC50 of doxorubicin hydrochloride was calculated using Prism software. The concentration in the matrix of doxorubicin hydrochloride concentrations closest to the EC50 was then identified. • 2. […]

CNC(=O)c1ccnc2c([C@H](C)CNc3cc(-c4cnc(C)nc4)ncn3)cccc12 [Compound B-1]
pH2AX level, max increase as compared to etoposide treatment alone [1]: 2 fold | pKAP1 level, max increase as compared to etoposide treatment alone [1]: 7 fold

[2H]c1nc(C)nc([2H])c1-c1cc(NC[C@@H](C)c2cccc3c(C(=O)NC)ccnc23)ncn1 [Compound B-2]
Bliss AUC (A549 lung cancer cells; Experiment A: Compound B-2 added 0 h after doxorubicin hydrochloride, exposure 24 h): 728 | Bliss AUC (A549 lung cancer cells; Experiment B: Compound B-2 added at 0 h, exposure 16 h): 101 | Bliss AUC (A549 lung cancer cells; Experiment C: Compound B-2 added at 8 h, exposure 16 h): 710 | Bliss AUC (A549 lung cancer cells; Experiment E: Compound B-2 added at 4 h, exposure 12 h): 266 | Bliss AUC (A549 lung cancer cells; Experiment G: Compound B-2 added at 12 h, exposure 12 h): 415 | Bliss AUC (A549 lung cancer cells; Experiment H: Compound B-2 added at 0 h, exposure 8 h): 71 | Bliss AUC (A549 lung cancer cells; Experiment I: Compound B-2 added at 4 h, exposure 8 h): 49 | Bliss AUC (A549 lung cancer cells; Experiment J: Compound B-2 added at 8 h, exposure 8 h): 12 | Bliss AUC (A549 lung cancer cells; Experiment K: Compound B-2 added at 12 h, exposure 8 h): 124 | Bliss AUC (A549 lung cancer cells; Experiment L: Compound B-2 added at 16 h, exposure 8 h): 323
